Results taken from ChEMBL document CHEMBL2062415, “Steroids from Commiphora mukul display antiproliferative effect against human prostate cancer PC3 cells via induction of apoptosis” (Bioorg Med Chem Lett, 2012).
Calls of active or inactive are those of the source. The calls are words filed in the database; no cut-off is given here.

What was measured:
DU-145 [1] = experiment: Induction of apoptosis in human DU145 cells assessed as accumulation at S phase at 20 uM after 48 hrs by propidium iodide staining-based flow cytometric analysis (reference value: 11.48%); type: functional
DU-145 [2] = experiment: Induction of apoptosis in human DU145 cells assessed as accumulation at S phase at 10 uM after 48 hrs by propidium iodide staining-based flow cytometric analysis (reference value: 11.48%); type: functional
PC-3 [3] = experiment: Cell cycle arrest in human PC3 cells assessed as accumulation at G2/M phase after 48 hrs by propidium iodide staining-based flow cytometric analysis; type: functional
DU-145 [4] = experiment: Induction of apoptosis in human DU145 cells assessed as early apoptotic cells at 20 uM after 48 hrs by annexinV/propidium iodide staining-based FITC analysis (reference value: 2.34%); type: functional
MCF7 [5] = experiment: Induction of apoptosis in human MCF7 cells assessed as late apoptotic cells at 5 uM after 48 hrs by annexinV/propidium iodide staining-based FITC analysis (reference value: 3.57%); type: functional
DU-145 [6] = experiment: Induction of apoptosis in human DU145 cells assessed as accumulation at G0/G1 phase at 10 uM after 48 hrs by propidium iodide staining-based flow cytometric analysis (reference value: 72.11%); type: functional
MCF7 [7] = experiment: Induction of apoptosis in human MCF7 cells assessed as accumulation at S phase at 10 uM after 48 hrs by propidium iodide staining-based flow cytometric analysis (reference value: 22.99%); type: functional
PC-3 [8] = experiment: Cell cycle arrest in human PC3 cells assessed as accumulation at S phase at 5 uM after 48 hrs by propidium iodide staining-based flow cytometric analysis relative to control; type: functional
DU-145 [9] = experiment: Induction of apoptosis in human DU145 cells assessed as necrotic cells at 20 uM after 48 hrs by annexinV/propidium iodide staining-based FITC analysis (reference value: 0.35%); type: functional
MCF7 [10] = experiment: Induction of apoptosis in human MCF7 cells assessed as early apoptotic cells at 10 uM after 48 hrs by annexinV/propidium iodide staining-based FITC analysis (reference value: 5.48%); type: functional
MCF7 [11] = experiment: Induction of apoptosis in human MCF7 cells assessed as accumulation at G0/G1 phase at 5 uM after 48 hrs by propidium iodide staining-based flow cytometric analysis (reference value: 67.46%); type: functional
PC-3 [12] = experiment: Cytotoxicity against human PC3 cells after 24 hrs by MTT assay; type: functional, cell-based; conditions: PC-3, 24 h
DU-145 [13] = experiment: Induction of apoptosis in human DU145 cells assessed as accumulation at G2/M phase at 40 uM after 48 hrs by propidium iodide staining-based flow cytometric analysis (reference value: 16.14%); type: functional
PC-3 [14] = experiment: Induction of apoptosis in human PC3 cells assessed as late apoptotic cells at 10 uM after 48 hrs by annexinV/propidium iodide staining-based FITC analysis relative to control; type: functional
DU-145 [15] = experiment: Cytotoxicity against human DU145 cells after 24 hrs by MTT assay; type: functional, cell-based; conditions: DU-145, 24 h
PC-3 [16] = experiment: Induction of apoptosis in human PC3 cells assessed as early apoptotic cells after 48 hrs by annexinV/propidium iodide staining-based FITC analysis relative to control; type: functional, cell-based
MCF7 [17] = experiment: Induction of apoptosis in human MCF7 cells assessed as early apoptotic cells at 5 uM after 48 hrs by annexinV/propidium iodide staining-based FITC analysis (reference value: 5.48%); type: functional
PC-3 [18] = experiment: Induction of apoptosis in human PC3 cells assessed as increase in PARP cleavage product after 48 hrs by Western blot analysis; type: functional, cell-based
PC-3 [19] = experiment: Induction of apoptosis in human PC3 cells assessed as early apoptotic cells at 10 uM after 48 hrs by annexinV/propidium iodide staining-based FITC analysis relative to control; type: functional
MCF7 [20] = experiment: Induction of apoptosis in human MCF7 cells assessed as accumulation at G0/G1 phase at 10 uM after 48 hrs by propidium iodide staining-based flow cytometric analysis (reference value: 67.46%); type: functional
PC-3 [21] = experiment: Induction of apoptosis in human PC3 cells assessed as necrotic cells at 10 uM after 48 hrs by annexinV/propidium iodide staining-based FITC analysis relative to control; type: functional
PC-3 [22] = experiment: Cell cycle arrest in human PC3 cells assessed as accumulation at G2/M phase at 20 uM after 48 hrs by propidium iodide staining-based flow cytometric analysis relative to control; type: functional
PC-3 [23] = experiment: Cell cycle arrest in human PC3 cells assessed as accumulation at G0/G1 phase at 5 uM after 48 hrs by propidium iodide staining-based flow cytometric analysis relative to control; type: functional
PC-3 [24] = experiment: Cell cycle arrest in human PC3 cells assessed as accumulation at G2/M phase at 10 uM after 48 hrs by propidium iodide staining-based flow cytometric analysis relative to control; type: functional
PC-3 [25] = experiment: Induction of apoptosis in human PC3 cells assessed as cleavage of caspase 3 at 5 to 20 uM after 48 hrs by Western blot analysis; type: functional, cell-based
PC-3 [26] = experiment: Induction of apoptosis in human PC3 cells assessed as cleavage of caspase 9 at 5 to 20 uM after 48 hrs by Western blot analysis; type: functional, cell-based
K562 [27] = experiment: Induction of apoptosis in human K562 cells assessed as accumulation at S phase at 5 uM after 48 hrs by propidium iodide staining-based flow cytometric analysis (reference value: 45.67%); type: functional
K562 [28] = experiment: Induction of apoptosis in human K562 cells assessed as late apoptotic cells at 10 uM after 48 hrs by annexinV/propidium iodide staining-based FITC analysis (reference value: 2.55%); type: functional
MCF7 [29] = experiment: Induction of apoptosis in human MCF7 cells assessed as necrotic cells at 20 uM after 48 hrs by annexinV/propidium iodide staining-based FITC analysis (reference value: 8.28%); type: functional
MCF7 [30] = experiment: Induction of apoptosis in human MCF7 cells assessed as accumulation at G2/M phase at 20 uM after 48 hrs by propidium iodide staining-based flow cytometric analysis (reference value: 9.55%); type: functional
K562 [31] = experiment: Induction of apoptosis in human K562 cells assessed as late apoptotic cells at 5 uM after 48 hrs by annexinV/propidium iodide staining-based FITC analysis (reference value: 2.55%); type: functional
DU-145 [32] = experiment: Induction of apoptosis in human DU145 cells assessed as accumulation at G0/G1 phase at 40 uM after 48 hrs by propidium iodide staining-based flow cytometric analysis (reference value: 72.11%); type: functional
DU-145 [33] = experiment: Induction of apoptosis in human DU145 cells assessed as accumulation at G0/G1 phase at 20 uM after 48 hrs by propidium iodide staining-based flow cytometric analysis (reference value: 72.11%); type: functional
MCF7 [34] = experiment: Induction of apoptosis in human MCF7 cells assessed as accumulation at G0/G1 phase at 20 uM after 48 hrs by propidium iodide staining-based flow cytometric analysis (reference value: 67.46%); type: functional
K562 [35] = experiment: Induction of apoptosis in human K562 cells assessed as accumulation at G2/M phase at 1 uM after 48 hrs by propidium iodide staining-based flow cytometric analysis (reference value: 15.72%); type: functional
PC-3 [36] = experiment: Increase in Bax protein level in human PC3 cells after 48 hrs by Western blot analysis; type: functional, cell-based
K562 [37] = experiment: Induction of apoptosis in human K562 cells assessed as accumulation at G0/G1 phase at 1 uM after 48 hrs by propidium iodide staining-based flow cytometric analysis (reference value: 38.61%); type: functional

SMILES: CC[C@H](/C=C/[C@@H](C)[C@H]1CC[C@H]2[C@H]3[C@H]([C@H](O)C[C@]12C)[C@@]1(C)CC[C@H](O)CC1=C[C@H]3O)C(C)C
- Activity (DU-145 [1]): 11.38%
- Activity (DU-145 [2]): 12.94%
- Activity (PC-3 [3]): Dose-dependent effect
- Activity (DU-145 [4]): 2.12%
- Activity (MCF7 [5]): 3.47%
- Activity (DU-145 [6]): 65.66%
- Activity (MCF7 [7]): 18.92%
- Activity (PC-3 [8]): 26.9%
- Activity (DU-145 [9]): 2.38%
- Activity (MCF7 [10]): 6.81%
- Activity (MCF7 [11]): 72.36%
- IC50 (PC-3 [12]): 10.9 µM
- Activity (DU-145 [13]): 35.85%
- Activity (PC-3 [14]): 37.79%
- IC50 (DU-145 [15]): 16.6 µM
- Activity (PC-3 [16]): Dose-dependent effect
- Activity (MCF7 [17]): 6.72%
- Activity (PC-3 [18]): Dose-dependent effect
- Activity (PC-3 [19]): 1.49%
- Activity (MCF7 [20]): 71.05%
- Activity (PC-3 [21]): 2.09%
- Activity (PC-3 [22]): 29.84%
- Activity (PC-3 [23]): 59%
- Activity (PC-3 [24]): 24.03%
- Activity (PC-3 [25]): Active
- Activity (PC-3 [26]): Active
- Activity (K562 [27]): 45.5%
- Activity (K562 [28]): 2.62%
- Activity (MCF7 [29]): 4.8%
- Activity (MCF7 [30]): 24.7%
- Activity (K562 [31]): 1.91%
- Activity (DU-145 [32]): 46.47%
- Activity (DU-145 [33]): 67.88%
- Activity (MCF7 [34]): 55.93%
- Activity (K562 [35]): 13.08%
- Activity (PC-3 [36]): Dose-dependent effect
- Activity (K562 [37]): 41.16%
